# Test results reported in publication PMC3375010, “The TRPV5/6 calcium channels contain multiple calmodulin binding sites with differential binding properties” (Journal of Structural and Functional Genomics, 2012).
# “Also recorded” adds a separate entry of the source.
# Columns and labels:
# CaM (calmodulin) [1] = biological target: T1, CaM (calmodulin) (Xenopus laevis, UniProt P0DP33); assay: 15N-1H-HSQC NMR titration of 15N-labelled CaM with peptide (with 1D 15N-filtered NMR); assay type: binding, Xenopus laevis (identical to mammalian); settings: 35°C; for CaM binding affinity (words, from NMR): 1:0–1:3; for NMR exchange regime of CaM-peptide complex: 15N-1H-HSQC, V5p4, V5p5: CaM buffer pH 7.0, V5p2, V5p2n: H2O with 10 mM 2-mercaptoethanol; for CaM NMR line broadening: CaM:peptide 1:1.5 molar ratio, H2O with 10 mM 2-mercaptoethanol; for CaM domains involved in binding (overall): V6p1: first and second event, pH 7.0, V5p3: 1:1, pH 5.0
# T1 construct: made in house; host or cells: E. coli AR58 (pTNcoI2 plasmid)
# Method: (§1) For the titration by synthetic peptides, ^15N-labeled CaM samples with concentration 0.3–0.7 mM were used. CaM and peptides were dissolved in either KCl 50 mM, CaCl2 10 mM, Tris 20 mM pH 7.0 (V5p1s, V6p1, V5p4, V5p5), or 10 mM CaCl2, 10 mM ammonium acetate buffer pH 5.0 (V5p3 and V6p3), or MilliQ water with 10 mM 2-mercaptoethanol (V5p2 and V5p2n).
# (§2) The binding of target peptides to CaM was monitored by 2D ^15N-^1H-HSQC spectra. The combination of 1D ^15N-filtered and 1D ^15N-^1H-HSQC experiments was used to assess the ratio of bound and non-bound peptides. ^15N-T1rho experiments were used to estimate the transverse relaxation rates of the CaM resonances during the titration. For sequential assignment of CaM 3D HNCACB and CBCA(CO)NH experiments were performed.
# All spectra were recorded at 308 K on Varian Inova 800 MHz or Bruker Avance III 600 MHz spectrometers, each equipped with a cryogenic probe.
# All NMR spectra were processed using the NMRpipe suite and analyzed by the program CcpNmr Analysis.
# [2] = Peptide solubility / aggregation; assay type: physicochemical; settings: for solubility: V5p2: at concentrations desired for NMR, V5p3, V6p3: 10 mM CaCl2, 10 mM ammonium acetate pH 5.0; for aggregation / precipitation: aqueous buffer versus water, 2-mercaptoethanol 10 mM tested
# Method: as §1
# ^15N-^1H-HSQC spectra of the complexes of CaM with V5p2 at molar ratios 1:0 (black), 1:0.75 (red) and 1:1.5 (blue) are presented in Fig. 5a.
# The binding patterns observed for CaM in the two complexes were also very similar (supplementary Fig. 4sC). Low pH (5.0) might influence CaM-peptide interactions but we have not studied the effect of pH in details. As both peptides contain neither tryptophan, nor tyrosine residues, fluorescence measurements were not possible using the native peptides.
# [3] = biological target: Calmodulin (Homo sapiens) (UniProt P0DP23); assay: fluorescence anisotropy; settings: cited from earlier work
# CaM (calmodulin) [4] = biological target: T1, CaM (calmodulin); assay: Isothermal titration calorimetry of CaM with peptide; assay type: binding, Xenopus laevis (identical to mammalian)
# Text: Peptides corresponding to the amino acid residues 133–154, 310–330, 401–428, 591–612, 696–712 and 696–729 of human TRPV5 and 401–428 and 690–716 of human TRPV6 (cf. Table 1) were purchased from Peptides & elephants GmbH (Potsdam, Germany) and GenicBio Limited (Shanghai, China). All peptides were purified by HPLC (>95% purity) and analyzed by mass-spectrometry. Prior to all experiments, to remove residual TFA, the peptides were dialyzed against an appropriate buffer (dialysis tubing Spectra/Por® 7 with 1 K MWCO; Spectrum Labs, USA).
# Expression was induced by a temperature shift from 30 to 42°C and 3–4 h after induction cells were harvested and lysed. Calmodulin was purified by weak anion exchange (DEAE, GE Lifesciences) and affinity chromatography (Phenylsepharose, GE Lifesciences). Purified protein was dialyzed against 1/100 of KCl 50 mM, CaCl2 10 mM, Tris 20 mM pH 7.0, freeze-dried and stored at −20°C. Unless specified differently, all chemicals were obtained from Sigma-Aldrich, USA). Uniformly ^13C and/or ^15N-labelled samples were produced by growing the cells in M9 minimal medium containing 4 g/L ^13C6-glucose and/or 1 g/L ^15N-ammonium chloride (Buchem BV, Apeldoorn, The Netherlands) as the sole source of carbon and/or nitrogen, respectively.
# ITC samples were prepared by dissolving CaM and peptides in 50 mM KCl, 10 mM CaCl2, 20 mM Tris pH 7.0 buffer. The concentration of CaM in the cell was 15–20 μM, the concentration of peptides in the syringe exceeded the CaM concentration by 15–20 times. Protein concentrations were determined using a Nanodrop spectrophotometer ND-1000 (Isogen Life Science). ITC experiments were carried out using an ITC200 device (MicroCal Inc., Northampton, MA, USA). After thermal equilibration at 298 K, thirty-nine 1 μl serial injections were performed at 500 rpm stirring speed with an injection spacing of 4 min. To correct the experimental binding isotherm for background heat effects, we also titrated peptide into buffer. All measurements were performed at least three times to determine the optimal experimental conditions with respect to signal-to-noise ratio. In all cases, experiments were consistent and reproducible. ITC data analysis was performed using the Origin 7.0 software supplied by the manufacturer of the ITC. All data were analyzed with “one binding site model” and the “sequential binding site model” implemented in this software package.
# CaM (calmodulin) [5] = biological target: T1, CaM (calmodulin); assay: Tryptophan fluorescence of the peptide upon titration by CaM; assay type: binding, Xenopus laevis (identical to mammalian); settings: room temperature; for emission maximum without CaM (start of shift): V6p1 W695: CaM buffer pH 7.0, V5p2 W593: H2O with 2-mercaptoethanol pH 7.0 (Table 1), before CaM addition; for emission maximum without CaM (start of shift) / shift of emission maximum upon CaM addition: excitation 282 nm; for shift of emission maximum upon CaM addition: emission 295–405 nm, peptide:CaM 1:0–1:2; for emission maximum: V5p2, W593
# Method: Fluorescence measurements were performed using a Varian Cary Eclipse fluorescence spectrophotometer (Agilent Technologies, USA), with emission and excitation slit width set to 5 nm. Tryptophan excitation wavelength was set to 282 nm and emission spectra were recorded in the range 295–405 nm. Each spectrum was recorded three times and averaged. Fluorescence intensity contribution from CaM and background intensity from buffer and cuvettes were subtracted for each spectrum. The recorded emission intensities were corrected for dilution effects. All measurements were carried out at room temperature. CaM and peptides stocks were prepared in 50 mM KCl, 10 mM CaCl2 20 mM Tris pH 7.0 buffer. […] For each titration point, the samples were kept at room temperature for 30 min prior to measurements to ensure that the equilibrium was reached.
# CaM (calmodulin) [6] = biological target: T1, CaM (calmodulin); assay: 15N-T1rho relaxation of CaM (oligomeric state); design: species or system Xenopus laevis (identical to mammalian); settings: CaM:V5p2 1:1.5 complex
# Method: as §2
# At CaM:V5p2 1:0.75 molar ratio, a significant number of the CaM peaks are doubled and for some peaks substantial line broadening is observed. […] Using the envelope of the well-dispersed, upfield-shifted amide resonances, we obtained T1rho values of ~100 ms for free Ca^2+/CaM which decreased to ~80 ms for CaM in the 1:1.5 complex.
# [7] = 15N-1H-HSQC titration, CaM buffer pH 7.0
# [8] = sequential binding sites model, N fixed to 2, pH 7.0, 298 K
substance,measurement,setting,value
"VRALLTRRASVSARATGTAFRR [V5p5, N-terminal peptide 5, residues 133–154 of human TRPV5]","CaM binding affinity (words, from NMR)",CaM (calmodulin) [1]; [7],relatively weak affinity; also recorded: weak but specific binding to CaM
same,NMR exchange regime of CaM-peptide complex,CaM (calmodulin) [1],fast exchange on the NMR timescale
"GVEVPDIFRMGVTRFFGQTILGGPFHVL [V6p3, TM23-loop peptide, residues 401–428 of TRPV6, L401G]",solubility,[2],only soluble at pH 5.0
TRPV5 587-616 (from UniProt Q9NQA5),Kd,[3],310 nM
"ELWRAQVVATTVMLERKLPRSL [V5p2n, V5p2 peptide featuring a C611S mutation]",NMR exchange regime of CaM-peptide complex,CaM (calmodulin) [1],an intermediate exchange regime is retained
same,CaM NMR line broadening,CaM (calmodulin) [1],a significant loss of signal is observed
same,aggregation / precipitation,[2],Neither of these two conditions appears to alter the observed behavior
"GLEI PDIFRVGASRYFGKTILGGPFHVI [V5p3, TM23-loop peptide, residues 401–428 of TRPV5, L401G]",CaM domains involved in binding (overall),CaM (calmodulin) [1],Residues of both CaM domains were involved in the binding process
same,solubility,[2],only soluble at pH 5.0
"GSSANWERLRQGTLRRDLRGIINRGLE [V6p1, TRPV6 C-terminal peptide 1, residues 690–716 of human TRPV6, R690G]",CaM domains involved in binding (overall),CaM (calmodulin) [1],residues from both domains of CaM are involved in the first and the second binding events; also recorded: involves both domains of CaM to a similar extent
same,comparison of the affinities of the two binding events,"CaM (calmodulin) [4]; K1 versus K2, sequential binding sites model",indistinguishable macroscopic binding constants; also recorded: nearly identical affinities
same,K1,"CaM (calmodulin) [4]; association constant, one binding site model, N allowed to vary, 50 mM KCl, 10 mM CaCl2, 20 mM Tris pH 7.0, 298 K",1.3 (±0.3) × 10^7 M^−1
same,"K2 (macroscopic binding constant, second event)","CaM (calmodulin) [4]; association constant, sequential binding sites model, N fixed to 2, 50 mM KCl, 10 mM CaCl2, 20 mM Tris pH 7.0, 298 K, CaM 15–20 μM in cell",5.2 (±1.5) × 10^6 M^−1
same,"K1 (macroscopic binding constant, first event)","CaM (calmodulin) [4]; association constant, sequential binding sites model, N fixed to 2, 50 mM KCl, 10 mM CaCl2, 20 mM Tris pH 7.0, 298 K, CaM 15–20 μM in cell, measured at least three times",2.2 (±1.7) × 10^6 M^−1
same,ΔS1,"CaM (calmodulin) [4]; one binding site model, N allowed to vary, pH 7.0, 298 K",−27.7 cal mol^−1 deg^−1
same,ΔS1,CaM (calmodulin) [4]; [8],−29.6 cal mol^−1 deg^−1
same,ΔS2,CaM (calmodulin) [4]; [8],−33.0 cal mol^−1 deg^−1
same,emission maximum upon addition of CaM,"CaM (calmodulin) [5]; V6p1, W695, CaM titration up to peptide:CaM 1:2, CaM buffer pH 7.0",324 nm
same,emission maximum without CaM (start of shift),CaM (calmodulin) [5],358 nm
same,shift of emission maximum upon CaM addition,CaM (calmodulin) [5],blue-shift in emission maximum
"GQTPVKELVSFKWNKYGRPYFS [V5p4, N-terminal peptide 4, residues 310–330 of human TRPV5, C330S]",binding process inferred from curved trajectory of resonances,CaM (calmodulin) [1]; [7],multiple processes take place during V5p4 binding to CaM
same,"CaM binding affinity (words, from NMR)",CaM (calmodulin) [1]; [7],relatively weak affinity; also recorded: weak but specific binding to CaM
same,NMR exchange regime of CaM-peptide complex,CaM (calmodulin) [1],fast exchange on the NMR timescale
same,shift of emission maximum upon CaM addition,CaM (calmodulin) [5],blue shift upon addition of calmodulin
"ELWRAQVVATTVMLERKLPRCL [V5p2, C-terminal peptide 2, residues 591–612 of human TRPV5]",CaM NMR line broadening,CaM (calmodulin) [1],"many peaks are significantly broadened, some even beyond detection; also recorded: dramatic line broadening in the CaM NMR spectra"
same,solubility,[2],only soluble in H2O; also recorded: limited solubility; also recorded: soluble in water
same,aggregation / precipitation,[2],in any buffer other than water precipitate was formed; also recorded: tends to aggregate in aqueous buffer solutions
same,oligomeric state of CaM in complex,CaM (calmodulin) [6]; from T1rho,(predominantly) monomeric state of CaM
same,15N-T1rho of CaM,"CaM (calmodulin) [6]; upfield-shifted amide resonances, H2O with 10 mM 2-mercaptoethanol",~ 80 ms
same,emission maximum,CaM (calmodulin) [5]; CaM:peptide 0.75:1 molar ratio,337 nm
same,emission maximum,CaM (calmodulin) [5]; further addition of CaM (beyond 0.75:1),312 nm
same,emission maximum without CaM (start of shift),CaM (calmodulin) [5],350 nm
same,shift of emission maximum upon CaM addition,CaM (calmodulin) [5],blue-shift in emission maximum
